# Literature values as cited in US20240342250A1, “COMPOSITION AND METHODS OF TREATMENT USING […]-ENHANCED SUPPLEMENTATION” (Xygenyx Inc., priority 2023, published 2024).
# Non-standard residues stand in square brackets, D forms with d. Residues, ends and D or L forms follow the SMILES beside them. Cit = NC(=O)NCCC[C@H](N)C(=O)O
# Experiments:
# [1] = in vivo
# [2] = test system: memory recall and cognitive function; details: compared to placebo; 34 pairs of matched adolescent students
# [3] = generally considered safe and well-tolerated at doses of up to
# [4] = test system: skin; details: topical formulations; within four weeks of treatment
# [5] = test system: wide dynamic range neurons in the ventroposterolateral nucleus of the thalamus; details: is believed
# [6] = test system: skin
# [7] = compared to alpha-tocopherol = 1.0
# [8] = test system: skin; details: topical, concentrations 0.5-5%
# [9] = even when dietary intake occurs in equal portions
# [10] = test system: systemic inflammation, oxidative status, and liver cell metabolism associated with rheumatoid arthritis; details: arthritic subjects
# [11] = test system: symptoms of depression; details: patients who did not respond to traditional antidepressant medications
# [12] = test system: markers of inflammation in the blood; details: individuals with metabolic syndrome
compound,measurement,setting,value
HGH: hormone comprising a peptide chain that is synthesized in the pituitary gland,biological half-life,[1],10-20 minutes
C/C=C1\[C@H]2C=C(C)C[C@]1(N)c1ccc(=O)[nH]c1C2 [Huperzine A],memory recall and cognitive function,[2],significant improvements in memory recall and cognitive function
CCNC(=O)CC[C@H](N)C(=O)O [Theanine],safe and well-tolerated dose,[3],up to 400 mg per day
Cc1c(C)c2c(c(C)c1O)CC[C@@](C)(CCC[C@H](C)CCC[C@H](C)CCCC(C)C)O2 [α-tocopherol],progression of age-related macular degeneration,400-500 IU in combination with 10-20 mg beta-carotene and 400-500 mg vitamin C,dramatically reduce the progression of age-related macular degeneration
same,functional health of sperm,800-900 IU/day,improve functional health of sperm
same,blood plasma concentration of F2-isoprostane,1600-3200 IU/day,significantly lower blood plasma concentration of F2-isoprostane
same,reduction of risk of coronary disease,"dietary supplementation, doses up to 400 IU/day",up to 34%
same,reduction of risk of developing neurodegenerative diseases such as Alzheimer's Syndrome or dementia,"dietary supplementation, doses up to 400 IU/day, controlled trials",≤ 24%
same,reduction in the development of age-related cataracts,in combination with 10-20 mg beta-carotene and 400-500 mg vitamin C,23%
CC[C@H](C)[C@H](NC(=O)[C@H](CC(=O)O)NC(=O)[C@@H](N)CCCCN)C(=O)N[C@@H](CCCNC(N)=O)C(N)=O [Tripeptide-10 citrulline] (H-KDI[Cit]-NH2),improvement of suppleness,[4],≤ 54%
"CCCCCc1cc(O)c2c(c1)OC(C)(C)C1CCC(C)=CC21 (stereo not shown) [THC, Δ-9-tetrahydrocannabinol]",potency in mediating pain relative to morphine,[5],ten times more powerful than morphine
"CC12CCC(CC1)C(C)(C)O2 [eucalyptol, Eucalyptol]","increase of transdermal drug uptake, factor",[6],more than 10
CC(C)[C@@H]1CC[C@@H](C)C[C@H]1O [Menthol],"increase of transdermal drug uptake, factor",[6],≥ 10
Cc1cc(O)c(C)c2c1O[C@](C)(CCC[C@H](C)CCC[C@H](C)CCCC(C)C)CC2 [β-tocopherol],relative biological activity,[7],0.5
"C=CCCCCCCCCC(=O)N[C@@H](Cc1ccccc1)C(=O)O [UP, Undecylenoyl phenylalanine]",time to skin lightening effects,[8],≥ 7 days
Cc1c(O)cc2c(c1C)O[C@](C)(CCC[C@H](C)CCC[C@H](C)CCCC(C)C)CC2 [γ-tocopherol],relative biological activity,[7],0.1
same,concentration in vivo relative to alpha-tocopherol,[9],roughly 10%
C=C1CC/C=C(\C)CC[C@@H]2[C@@H]1CC2(C)C [β-caryophyllene],protein carbonyl groups and myeloperoxidase activity in liver and plasma,[10],eliminated increases of protein carbonyl groups and myeloperoxidase activity
same,"swelling of joints and lymph nodes, circulating and articular leukocytes",[10],reduced swelling of joints and lymph nodes as well as the number of circulating and articular leukocytes
"CN1c2c([nH]c(N)nc2=O)NCC1CNc1ccc(C(=O)N[C@@H](CCC(=O)O)C(=O)O)cc1 (stereo partly shown) [5-MTHF, 5-methyltetrahydrofolate]",symptoms of depression,[11],improved symptoms of depression
Cc1cc(O)cc2c1O[C@](C)(CCC[C@H](C)CCC[C@H](C)CCCC(C)C)CC2 [δ-tocopherol],relative biological activity,[7],0.03
same,markers of inflammation in the blood,[12],reduced markers of inflammation in the blood
